Measurements published in PMC9332707, “Bio-Guided Isolation of SARS-CoV-2 Main Protease Inhibitors from Medicinal Plants: In Vitro Assay and Molecular Dynamics” (Plants, 2022).
Converted amounts (≈) assume the structure as drawn. Like-named read-outs stand apart in the source and are kept apart here.

Key:
SARS-CoV-2 M^PRO = SARS-CoV-2 M^PRO (Severe acute respiratory syndrome coronavirus 2, UniProt P0DTD1); test: biochemical; format: biochemical
[1] = tested on: SARS-CoV-2 (hCoV-19/Egypt/NRC-03/2020); test: microbe, parasite or virus in culture; format: cell-based; details: for selectivity index CC50/IC50: CC50 (VERO-E6) / antiviral IC50
SARS-CoV-2 infection = tested on: SARS-CoV-2 infection; design: method as in PMID 33203926; details: read-out: IC50 against SARS-CoV-2 infection; cited from earlier work
[2] = design: method as in PMID 33203926; details: cited from earlier work
[3] = cited from earlier work
MTT cytotoxicity assay = details: African green monkey
in vitro = details: African green monkey
M^PRO = details: read-out: reported bioassay IC50 (M^PRO); reported for the co-crystallized inhibitors (PDB 7CBT, 6W63); ref not given; cited from earlier work
[4] = design: method as in earlier work; details: dose of 5 mg/day to 2600 mg/day, without any toxic symptoms; cited from earlier work
[5] = design: method as in PMID 24924310; details: cited from earlier work
[6] = Severe acute respiratory syndrome coronavirus 2, Vero C1008, read-out: IC50 antiviral activity against SARS-CoV-2
[7] = relative to GC376 standard inhibitor, read-out: IC50 on SARS-CoV-2 viral main protease
[8] = Severe acute respiratory syndrome coronavirus 2, Vero C1008, hCoV-19/Egypt/NRC-03/2020 on Vero-E6 cells, read-out: IC50 antiviral activity against SARS-CoV-2

SMILES: CCCCC[C@H](O)CC(=O)CCc1ccc(O)c(OC)c1 [6-Gingerol]
- % Inhibition of SARS-CoV-2 M^PRO by isolated compounds (SARS-CoV-2 M^PRO): 65.2%
- IC50 (SARS-CoV-2 M^PRO): 9.33 µM
- selectivity index CC50/IC50 [1]: 2.3
- IC50 [1, 6]: 43.5 µg/mL (≈ 148 µM)
- IC50 (SARS-CoV-2 infection): > 100 µM
- CC50 [2]: > 100 µM
- absorption after oral administration ([3]; detected in blood as glucuronide and sulfate conjugates): well-absorbed
- toxicity / tolerability in humans ([3]; doses up to 2.0 g daily, only mild gastrointestinal complaints): low levels of toxicity and high levels of tolerability
- CC50 (MTT cytotoxicity assay): 101 µg/mL (≈ 344 µM)

SMILES: CCCCCCCC(=O)CCc1ccc(O)c(OC)c1 [6-Paradol]
- % Inhibition of SARS-CoV-2 M^PRO by isolated compounds (SARS-CoV-2 M^PRO; FRET assay, isolated compounds): 71.8%
- IC50 (SARS-CoV-2 M^PRO; [7]): 0.168 µM
- selectivity index CC50/IC50 [1]: 0.6
- IC50 [1, 8]: 281 µg/mL (≈ 1010 µM)
- CC50 (in vitro): 155 µg/mL (≈ 557 µM)

SMILES: CC(C)C[C@H](NC(=O)OCc1ccccc1)C(=O)N[C@@H](CC1CCNC1=O)C(O)S(=O)(=O)O (stereo partly drawn) [GC376]
- IC50 (M^PRO): 0.026 µM

SMILES: COc1cc(-c2cc(=O)c3c(O)c(OC)c(OC)c(OC)c3o2)cc(OC)c1OC [Gardenin A]
- % Inhibition of SARS-CoV-2 M^PRO by isolated compounds (SARS-CoV-2 M^PRO): 73.80%
- IC50 (SARS-CoV-2 M^PRO; [7]): 5.96 µM
- selectivity index CC50/IC50 [1]: 2.9
- IC50 [1, 8]: 83.8 µg/mL (≈ 200 µM)
- CC50 (in vitro): 246 µg/mL (≈ 589 µM)

SMILES: COc1ccc(-c2cc(=O)c3c(O)c(OC)c(OC)c(OC)c3o2)cc1 [Gardenin B]
- % Inhibition of SARS-CoV-2 M^PRO by isolated compounds (SARS-CoV-2 M^PRO): 1.00%

SMILES: CC1=CC(=O)C(C(C)C)=CC1=O [Thymoquinone]
- % Inhibition of SARS-CoV-2 M^PRO by isolated compounds (SARS-CoV-2 M^PRO; FRET assay, isolated compounds): 63.21%
- IC50 (SARS-CoV-2 M^PRO; [7]): 10.3 µM
- selectivity index CC50/IC50 [1]: 1.33
- IC50 [1, 6]: 6.14 µg/mL (≈ 37.4 µM)
- clinical safety [4]: safe
- elimination ([5]; after oral and IV administration): rapid-elimination properties
- absorption following oral administration ([5]; oral): relatively slower absorption
- CC50 (MTT cytotoxicity assay; VERO-E6 cells): 8.2 µg/mL (≈ 49.9 µM)

SMILES: CC(C)(C)c1ccc(N(C(=O)c2cnc[nH]2)[C@@H](C(=O)NC2CCCCC2)c2cccnc2)cc1 [X77]
- IC50 (M^PRO): 2.3 µM
